In patent US9315505B2, “Heterocyclic compounds and uses thereof” (INTELLIKINE LLC, priority 2009, dated 2016) one finds IC50 data, which are given here for 37 molecules.

Bounds are passed on as bounds.

As a reminder, the IC50 is the midpoint of a concentration-inhibition curve.

What all share (type): biochemical
One assay addresses T1, PI3K δ (Homo sapiens, UniProt O00329).
T1 construct: purchased Upstate
The assay can be described thus: In vitro IC50, PI3K δ (p110δ/p85α inhibition assay). To be noted: in vitro kinase assay; read-out: IC50(nM) PI3K δ. As to the method:
(§1) IC50 values are measured using either a standard TLC assay for lipid kinase activity (described below) or a high-throughput membrane capture assay. Kinase reactions are performed by preparing a reaction mixture containing kinase, inhibitor (2% DMSO final concentration), buffer (25 mM HEPES, pH 7.4, 10 mM MgCl2), and freshly sonicated phosphatidylinositol (100 μg/ml). Reactions are initiated by the addition of ATP containing 10 μCi of γ-32P-ATP to a final concentration 10 or 100 μM and allowed to proceed for 5 minutes at room temperature. For TLC analysis, reactions are then terminated by the addition of 105 μl 1N HCl followed by 160 μl CHCl3:MeOH (1:1). The biphasic mixture is vortexed, briefly centrifuged, and the organic phase is transferred to a new tube using a gel loading pipette tip precoated with CHCl3. This extract is spotted on TLC plates and developed for 3-4 hours in a 65:35 solution of n-propanol:1M acetic acid. The TLC plates are then dried, exposed to a phosphorimager screen (Storm, Amersham), and quantitated.
(§2) Other commercial kits or systems for assaying PI3-K activities are available. The commercially available kits or systems can be used to screen for inhibitors and/or agonists of PI3-Ks including but not limited to PI 3-Kinase α, β, δ, and γ. An exemplary system is PI 3-Kinase (human) HTRF™ Assay from Upstate. […] Briefly, the assay is a time resolved FRET assay that indirectly measures PIP3 product formed by the activity of a PI3-K. The kinase reaction is performed in a microtitre plate (e.g., a 384 well microtitre plate). The total reaction volume is approximately 20 ul per well. In the first step, each well receives 2 ul of test compound in 20% dimethylsulphoxide resulting in a 2% DMSO final concentration. Next, approximately 14.5 ul of a kinase/PIP2 mixture (diluted in 1× reaction buffer) is added per well for a final concentration of 0.25-0.3 ug/ml kinase and 10 uM PIP2. The plate is sealed and incubated for 15 minutes at room temperature. To start the reaction, 3.5 ul of ATP (diluted in 1× reaction buffer) is added per well for a final concentration of 10 uM ATP. The plate is sealed and incubated for 1 hour at room temperature. The reaction is stopped by adding 5 ul of Stop Solution per well and then 5 ul of Detection Mix is added per well. The plate is sealed, incubated for 1 hour at room temperature, and then read on an appropriate plate reader. Data is analyzed and IC50s are generated using GraphPad Prism 5.

In another assay the target is T2, PI3K α (Homo sapiens, UniProt P42336).
T2 construct: purchased Upstate
Nature of the assay: In vitro IC50, PI3K α (p110α/p85α inhibition assay). To be noted: in vitro kinase assay; read-out: IC50(nM) PI3K α. As to the method: as §1, §2

The next assay has as its target T3, PI3K γ (Homo sapiens, UniProt P48736).
T3 construct: purchased Sigma
The assay can be described thus: In vitro IC50, PI3K γ (p110γ inhibition assay). To be noted: in vitro kinase assay. How it is done: as §1, with “Class I PI3-Ks can be either purchased (p110α/p85α, p110β/p85α, p110δ/p85α from Upstate, and p110γ from Sigma) or expressed as previously described (Knight et al., 2004). IC50” for “IC50”, “quantitated. For each compound, kinase activity is measured at 10-12 inhibitor concentrations representing two-fold dilutions from the highest concentration tested (typically, 200 μM).” for “quantitated.”
as §2

T3 sequence (P48736 whole entry): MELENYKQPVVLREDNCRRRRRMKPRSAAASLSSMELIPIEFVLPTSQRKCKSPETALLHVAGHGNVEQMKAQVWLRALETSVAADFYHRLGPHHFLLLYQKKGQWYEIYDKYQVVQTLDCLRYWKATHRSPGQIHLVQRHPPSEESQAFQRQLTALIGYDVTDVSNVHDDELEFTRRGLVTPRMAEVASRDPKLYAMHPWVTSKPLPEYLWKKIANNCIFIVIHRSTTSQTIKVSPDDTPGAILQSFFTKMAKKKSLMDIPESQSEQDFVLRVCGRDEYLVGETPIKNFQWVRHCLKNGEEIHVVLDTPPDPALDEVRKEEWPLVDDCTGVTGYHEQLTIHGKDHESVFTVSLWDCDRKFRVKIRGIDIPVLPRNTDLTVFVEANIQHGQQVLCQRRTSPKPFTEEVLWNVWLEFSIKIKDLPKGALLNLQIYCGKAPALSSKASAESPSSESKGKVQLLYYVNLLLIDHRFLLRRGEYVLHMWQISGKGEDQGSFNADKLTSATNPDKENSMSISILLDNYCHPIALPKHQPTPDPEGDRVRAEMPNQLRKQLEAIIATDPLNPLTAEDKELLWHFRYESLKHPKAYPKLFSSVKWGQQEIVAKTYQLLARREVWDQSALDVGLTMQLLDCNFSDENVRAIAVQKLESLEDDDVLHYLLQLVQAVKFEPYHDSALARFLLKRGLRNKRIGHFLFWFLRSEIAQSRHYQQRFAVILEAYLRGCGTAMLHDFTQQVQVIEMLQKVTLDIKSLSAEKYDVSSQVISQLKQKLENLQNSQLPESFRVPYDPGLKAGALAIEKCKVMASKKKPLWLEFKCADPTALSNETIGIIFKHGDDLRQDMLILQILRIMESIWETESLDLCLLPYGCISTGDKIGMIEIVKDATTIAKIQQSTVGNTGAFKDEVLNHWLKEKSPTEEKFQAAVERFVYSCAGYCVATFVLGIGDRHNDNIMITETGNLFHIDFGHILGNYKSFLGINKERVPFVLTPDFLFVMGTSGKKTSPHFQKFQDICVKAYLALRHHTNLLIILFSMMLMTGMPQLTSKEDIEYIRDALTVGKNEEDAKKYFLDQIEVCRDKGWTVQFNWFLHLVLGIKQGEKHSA
T1 sequence (O00329 whole entry): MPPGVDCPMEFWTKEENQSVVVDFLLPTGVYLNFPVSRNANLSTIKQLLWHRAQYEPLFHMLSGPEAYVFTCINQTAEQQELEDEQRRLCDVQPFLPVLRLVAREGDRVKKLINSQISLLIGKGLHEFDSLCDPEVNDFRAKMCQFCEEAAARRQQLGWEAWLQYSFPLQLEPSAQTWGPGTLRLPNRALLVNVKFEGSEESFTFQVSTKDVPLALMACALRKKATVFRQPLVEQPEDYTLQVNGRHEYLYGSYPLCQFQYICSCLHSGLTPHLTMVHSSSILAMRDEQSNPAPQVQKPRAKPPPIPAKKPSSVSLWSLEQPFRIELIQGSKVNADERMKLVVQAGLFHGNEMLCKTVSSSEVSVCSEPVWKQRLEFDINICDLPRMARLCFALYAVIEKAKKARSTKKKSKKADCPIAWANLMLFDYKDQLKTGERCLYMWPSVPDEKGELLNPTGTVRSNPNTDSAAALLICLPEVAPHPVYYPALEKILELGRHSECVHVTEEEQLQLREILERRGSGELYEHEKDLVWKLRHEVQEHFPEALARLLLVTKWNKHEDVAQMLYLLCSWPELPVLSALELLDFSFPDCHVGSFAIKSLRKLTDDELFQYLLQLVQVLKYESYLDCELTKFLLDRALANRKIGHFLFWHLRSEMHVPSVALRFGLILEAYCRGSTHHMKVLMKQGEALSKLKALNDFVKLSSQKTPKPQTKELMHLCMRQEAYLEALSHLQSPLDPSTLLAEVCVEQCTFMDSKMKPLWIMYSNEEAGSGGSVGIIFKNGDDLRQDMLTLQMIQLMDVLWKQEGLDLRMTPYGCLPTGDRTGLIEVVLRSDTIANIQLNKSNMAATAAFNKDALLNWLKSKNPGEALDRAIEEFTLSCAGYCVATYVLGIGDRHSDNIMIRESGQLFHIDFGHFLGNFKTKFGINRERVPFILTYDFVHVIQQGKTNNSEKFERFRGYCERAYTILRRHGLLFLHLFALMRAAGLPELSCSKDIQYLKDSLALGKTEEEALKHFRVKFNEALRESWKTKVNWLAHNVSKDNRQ
T1 sequence (P27986 whole entry partner): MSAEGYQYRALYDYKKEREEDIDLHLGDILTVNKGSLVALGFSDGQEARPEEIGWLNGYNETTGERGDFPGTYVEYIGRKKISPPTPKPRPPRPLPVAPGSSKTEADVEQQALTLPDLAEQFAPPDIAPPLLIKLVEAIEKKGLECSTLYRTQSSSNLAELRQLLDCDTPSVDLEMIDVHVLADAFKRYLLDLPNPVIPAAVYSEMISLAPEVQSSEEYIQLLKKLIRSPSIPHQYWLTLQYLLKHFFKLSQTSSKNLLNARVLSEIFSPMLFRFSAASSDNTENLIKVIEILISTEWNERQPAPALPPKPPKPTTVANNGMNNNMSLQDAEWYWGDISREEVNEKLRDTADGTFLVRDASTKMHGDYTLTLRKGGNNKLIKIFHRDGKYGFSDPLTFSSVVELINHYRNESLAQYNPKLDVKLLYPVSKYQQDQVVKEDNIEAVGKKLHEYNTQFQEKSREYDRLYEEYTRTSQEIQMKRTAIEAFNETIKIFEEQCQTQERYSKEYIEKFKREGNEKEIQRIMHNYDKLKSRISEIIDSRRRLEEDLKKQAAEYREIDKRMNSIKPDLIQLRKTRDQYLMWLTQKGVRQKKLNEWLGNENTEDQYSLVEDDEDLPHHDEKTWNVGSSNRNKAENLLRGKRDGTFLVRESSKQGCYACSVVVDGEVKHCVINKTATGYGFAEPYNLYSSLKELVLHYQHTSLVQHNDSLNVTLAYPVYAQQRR
T2 sequence (P42336 whole entry): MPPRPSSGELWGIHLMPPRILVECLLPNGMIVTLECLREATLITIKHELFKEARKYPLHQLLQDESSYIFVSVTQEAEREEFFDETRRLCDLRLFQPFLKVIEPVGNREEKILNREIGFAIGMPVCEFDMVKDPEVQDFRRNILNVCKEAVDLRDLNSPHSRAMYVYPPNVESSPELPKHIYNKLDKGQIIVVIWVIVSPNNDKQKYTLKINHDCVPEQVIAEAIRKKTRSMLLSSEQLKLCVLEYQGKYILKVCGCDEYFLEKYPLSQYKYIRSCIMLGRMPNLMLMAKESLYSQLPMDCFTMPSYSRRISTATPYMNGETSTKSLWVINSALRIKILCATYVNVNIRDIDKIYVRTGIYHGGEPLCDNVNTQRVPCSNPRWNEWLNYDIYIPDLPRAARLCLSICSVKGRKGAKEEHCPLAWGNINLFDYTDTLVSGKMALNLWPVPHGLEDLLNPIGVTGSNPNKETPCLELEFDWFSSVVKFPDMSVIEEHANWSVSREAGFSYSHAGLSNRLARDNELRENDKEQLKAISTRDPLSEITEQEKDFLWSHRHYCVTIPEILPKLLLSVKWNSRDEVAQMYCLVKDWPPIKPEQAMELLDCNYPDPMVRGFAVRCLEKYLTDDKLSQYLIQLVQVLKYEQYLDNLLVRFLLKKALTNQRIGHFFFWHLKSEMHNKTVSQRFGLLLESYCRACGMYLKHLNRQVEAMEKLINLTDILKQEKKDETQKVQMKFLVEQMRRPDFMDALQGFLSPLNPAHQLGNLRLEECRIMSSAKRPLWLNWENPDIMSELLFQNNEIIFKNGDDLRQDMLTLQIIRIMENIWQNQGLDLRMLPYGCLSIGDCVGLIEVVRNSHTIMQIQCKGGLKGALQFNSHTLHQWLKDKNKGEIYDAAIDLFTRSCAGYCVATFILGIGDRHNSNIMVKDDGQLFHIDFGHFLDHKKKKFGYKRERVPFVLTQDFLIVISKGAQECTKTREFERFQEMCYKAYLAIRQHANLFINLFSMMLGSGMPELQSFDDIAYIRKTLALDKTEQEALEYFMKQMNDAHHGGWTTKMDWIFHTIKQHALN
T2 sequence (P27986 whole entry partner): as the sequence (P27986 whole entry partner) above

For the molecule `Cc1cccc2cc(CNc3ncnc4[nH]cnc34)nc(OC3CCN(C(C)C)CC3)c12` [Compound 10], the IC50 on PI3K δ is less than 100 nM; at PI3K α, greater than 10000 nM; against PI3K γ, greater than 10000 nM.
Turning to `CCN(Cc1cc2cccc(C)c2c(OC2CCN(C(C)C)CC2)n1)c1ncnc2[nH]cnc12` [Compound 11], the concentration for half-maximal inhibition (IC50) at PI3K δ is less than 10000 nM; on PI3K α, greater than 10000 nM; on PI3K γ it was greater than 10000 nM.
For `Cc1cccc2cc(CN(C)c3ncnc4[nH]cnc34)nc(OC3CCN(C(C)C)CC3)c12` [Compound 12], the half-maximal inhibitory concentration (IC50) at PI3K δ is less than 1000 nM; at PI3K α, greater than 10000 nM; on PI3K γ it was greater than 10000 nM.
For the molecule `Cc1cccc2cc(C(C)Nc3ncnc4[nH]cnc34)nc(OC3CCNCC3)c12` (stereo not drawn) [Compound 14], the concentration for half-maximal inhibition (IC50) at PI3K δ is less than 1000 nM; at PI3K α, greater than 10000 nM; on PI3K γ it was greater than 10000 nM.
For the molecule `Cc1cccc2cc(Cn3nc(-c4cn[nH]c4)c4c(N)ncnc43)nc(N3CCN(C)CC3)c12` [Compound 18], the IC50 is less than 100 nM on PI3K δ and less than 10000 nM at PI3K α.
Consider `Cc1cccc2cc(C(C)Nc3ncnc4[nH]cnc34)nc(N3CCN(C)CC3)c12` (stereo not drawn) [Compound 19], for which the IC50 was less than 100 nM on PI3K δ and greater than 10000 nM against PI3K γ.
With `Cc1cccc2cc(C(C)Nc3ncnc4[nH]cnc34)nc(OC3CCN(C(C)C)CC3)c12` (stereo not drawn) [Compound 21], the results for the IC50 at PI3K δ, on PI3K α and against PI3K γ were less than 100 nM, less than 10000 nM and greater than 10000 nM, respectively.
Regarding `CC(Nc1ncnc2[nH]cnc12)c1cc2ccccc2c(OC2CCNCC2)n1` (stereo not drawn) [Compound 22], the half-inhibitory concentration (IC50) at PI3K δ is less than 10000 nM.
Take `CC(Nc1ncnc2[nH]cnc12)c1cc2ccccc2c(OC2CCN(C)CC2)n1` (stereo not drawn) [Compound 23]: the IC50 at PI3K δ was less than 1000 nM; at PI3K α it was greater than 10000 nM; on PI3K γ it was greater than 10000 nM.
As to `Cc1cccc2cc(C(C)Nc3ncnc4[nH]cnc34)nc(Oc3ccccc3)c12` (stereo not drawn) [Compound 24], the half-inhibitory concentration (IC50) at PI3K δ is less than 1000 nM.
Regarding `Cc1cccc2cc(Cn3nc(-c4cn[nH]c4)c4c(N)ncnc43)nc(N3CCCC3)c12` [Compound 27], the results for the IC50 on PI3K δ, on PI3K α and against PI3K γ were less than 100 nM, less than 10000 nM and less than 1000 nM, respectively.
Regarding `CC(=O)Nc1nc2ccc(-c3nn(Cc4cc5cccc(C)c5c(OC(C)C)n4)c4ncnc(N)c34)cc2s1` [Compound 28], the concentration for half-maximal inhibition (IC50) at PI3K δ was greater than 10000 nM.
Same read-out and setting: in the case of `Cc1cccc2cc(Cn3nc(-c4ccc5oc(N)nc5c4)c4c(N)ncnc43)nc(OC(C)C)c12` [Compound 29] it was greater than 10000 nM; in that of `Cc1cccc2cc(Cn3nc(-c4cn[nH]c4)c4c(N)ncnc43)nc(OC(C)C)c12` [Compound 30], less than 10000 nM.
Same read-out and setting: to `Cc1cccc2cc(C(C)Nc3ncnc4[nH]cnc34)nc(OC(C)C)c12` (stereo not drawn) [Compound 32] belongs less than 10000 nM; to `Cc1cccc2cc(C(Nc3ncnc4[nH]cnc34)c3ccccc3)ncc12` (stereo not drawn) [Compound 33], less than 10000 nM.
On the same count and under the same terms, in the case of `Cc1cccc2cc(Cn3nc(-c4ccc5oc(N)nc5c4)c4c(N)ncnc43)nc(Oc3ccccc3)c12` [Compound 34] it was less than 10000 nM.
`Cc1cccc2cc(C(C)Nc3ncnc4[nH]cnc34)nc(OC3CCOCC3)c12` (stereo not drawn) [Compound 40]: the IC50 is less than 1000 nM on PI3K δ and greater than 10000 nM against PI3K γ.
On to `Cc1cccc2cc(C(C)Nc3ncnc4[nH]cnc34)nc(NC3CCN(C)CC3)c12` (stereo not drawn) [Compound 41], for which the IC50 at PI3K δ was less than 1000 nM; against PI3K γ, greater than 10000 nM.
The matching figures for `Cc1cccc2cc(C(C)Nc3ncnc4[nH]cnc34)nc(NC3CCOCC3)c12` (stereo not drawn) [Compound 43]: less than 10000 nM and greater than 10000 nM.
For the molecule `CC(=O)N1CCC(Oc2nc(C(C)Nc3ncnc4[nH]cnc34)cc3cccc(C)c23)CC1` (stereo not drawn) [Compound 47], the half-maximal inhibitory concentration (IC50) at PI3K δ is less than 100 nM; at PI3K α it was greater than 10000 nM; against PI3K γ, less than 1000 nM.
The matching figures for `Cc1cccc2cc(C(C)Nc3ncnc4[nH]cnc34)nc(OC3CCN(S(C)(=O)=O)CC3)c12` (stereo not drawn) [Compound 48]: less than 100 nM, greater than 10000 nM and less than 10000 nM.
The matching figures for `CC(=O)N1CCC(Nc2nc(C(C)Nc3ncnc4[nH]cnc34)cc3cccc(C)c23)CC1` (stereo not drawn) [Compound 49]: less than 1000 nM, greater than 10000 nM and less than 10000 nM.
The corresponding values for `Cc1cccc2cc(C(C)Nc3ncnc4[nH]cnc34)nc(OCC3CCN(C(C)C)CC3)c12` (stereo not drawn) [Compound 51] are less than 100 nM, less than 10000 nM and greater than 10000 nM.
Regarding `CC(=O)N1CCC(Oc2nc(C(C)Nc3ncnc4[nH]cnc34)cc3ccccc23)CC1` (stereo not drawn) [Compound 52], the 50% inhibitory concentration (IC50) was less than 1000 nM on PI3K δ, greater than 10000 nM at PI3K α and greater than 10000 nM on PI3K γ.
In the case of `CC(Nc1ncnc2[nH]cnc12)c1cc2ccccc2c(OC2CCN(S(C)(=O)=O)CC2)n1` (stereo not drawn) [Compound 53], the results for the IC50 at PI3K δ, on PI3K α and on PI3K γ were less than 1000 nM, greater than 10000 nM and greater than 10000 nM, respectively.
`C[C@H](Nc1ncnc2[nH]cnc12)c1cc2cccc(Cl)c2c(N2CCN(S(C)(=O)=O)CC2)n1` [Compound 64]: the IC50 on PI3K δ was less than 100 nM; at PI3K α, less than 10000 nM; on PI3K γ it was less than 1000 nM.
The corresponding values for `CC(=O)N1CCN(c2nc([C@H](C)Nc3ncnc4[nH]cnc34)cc3cccc(Cl)c23)CC1` [Compound 69] are less than 1000 nM, greater than 10000 nM and greater than 10000 nM.
The matching figures for `CC(=O)N1CCN(c2nc(Cn3nc(-c4cn[nH]c4)c4c(N)ncnc43)cc3cccc(Cl)c23)CC1` [Compound 70]: less than 100 nM, greater than 10000 nM and less than 10000 nM.
The corresponding values for `C[C@H](Nc1ncnc2[nH]cnc12)c1cc2cccc(Cl)c2c(N(C)C)n1` [Compound 71] are less than 100 nM, less than 10000 nM and less than 1000 nM.
With `C[C@H](Nc1ncnc2[nH]cnc12)c1cc2cccc(Cl)c2c(OCCN2CCCC2)n1` [Compound 72], the figures for the IC50 at PI3K δ, on PI3K α and on PI3K γ were less than 100 nM, less than 10000 nM and less than 1000 nM, respectively.
The corresponding values for `C[C@H](Nc1ncnc2[nH]cnc12)c1cc2cccc(Cl)c2c(OCC2CCN(C)CC2)n1` [Compound 73] are less than 100 nM, less than 10000 nM and less than 10000 nM.
The corresponding values for `C[C@H](Nc1ncnc2[nH]cnc12)c1cc2cccc(Cl)c2c(OCCN2CCN(S(C)(=O)=O)CC2)n1` [Compound 74] are less than 100 nM, greater than 10000 nM and less than 10000 nM.
The matching figures for `C[C@H](Nc1ncnc2[nH]cnc12)c1cc2cccc(Cl)c2c(OCC2CCN(S(C)(=O)=O)CC2)n1` [Compound 75]: less than 100 nM, greater than 10000 nM and greater than 10000 nM.
In the case of `C[C@H](Nc1ncnc2[nH]cnc12)c1cc2ccccc2c(-c2cccnc2)n1` [Compound 76], the figures for the concentration for half-maximal inhibition (IC50) at PI3K δ, at PI3K α and against PI3K γ were less than 1000 nM, greater than 10000 nM and less than 10000 nM, respectively.
The matching figures for `C[C@H](Nc1ncnc2[nH]cnc12)c1cc2ccccc2c(N2CCN(S(C)(=O)=O)CC2)n1` [Compound 77]: less than 1000 nM, greater than 10000 nM and greater than 10000 nM.
The matching figures for `CC(Nc1ncnc2[nH]cnc12)c1cc2cccc(Cl)c2c(CCN2CCOCC2)n1` (stereo not drawn) [Compound 78]: less than 100 nM, greater than 10000 nM and less than 10000 nM.
